Values quoted from earlier work, collected in patent publication US12465571B2, “Solid dosage form” (University of Lancashire, priority 2016, dated 2025).

Conditions: high solubility and high permeability

Biopharmaceutical Classification System class: class I
SMILES: Cn1c(=O)c2[nH]cnc2n(C)c1=O [theophylline, Theophylline]
